# Laboratory results from paper PMC9181543, “Lysosomal Exocytosis of Olivacine on the Way to Explain Drug Resistance in Cancer Cells” (International Journal of Molecular Sciences, 2022).
# Assays:
# CCRF/CEM cells [1] = test system: CCRF/CEM cells; parameters: method as in PMID 24898668; details: cited from earlier work
# MCF-7 cells = assay: SRB assay (total protein content), MCF-7; format: cell-based; details: Homo sapiens, MCF7, 48 h incubation
# Description: (§1) The anticancer activity of tested compounds was assessed on five human cell lines selected from the panel of tumor cell lines recommended by the National Cancer Institute: A495 (lung carcinoma), CCRF/CEM (acute lymphoblastic leukemia), LoVo and LoVo/DX (two types of colorectal: non-resistant and resistant to doxorubicin), and MCF-7 (breast adenocarcinoma). In addition, the NHDF cell line (normal human dermal fibroblasts) was used to estimate cytotoxicity to noncancer cells. The A549, CCRF/CEM, LoVo, LoVo/DX, and MCF-7 cells were obtained from ECACC, and NHDF cells from LONZA, Belgium. The A549 and MCF-7 cells were grown in EMEM medium, CCRF/CEM cells in RPMI-1640, LoVo and LoVo/DX cells in DMEM/F-12, and NHDF cells in DMEM without phenol red. The cells were seeded in […] in the biological assay, as recommended by the National Cancer Institute. All culture media were supplemented with L-glutamine, penicillin, streptomycin, and 10% fetal bovine serum (FBS). Cells were incubated at 37 °C and 5% CO2. One of the most popular in vitro tests to evaluate the activity of compounds with potential antitumor activity is the SRB assay. The sulforhodamine B dye is used, which binds to the protein at the appropriate pH. The assay allows for assessing cell mass and, indirectly, their proliferation. The advantage of the assay is that it measures cellular protein content and not the activity of any enzymes. The SRB assay was carried out according to the National Cancer Institute procedure. Cells were incubated in a culture medium for 24 h in 96-well plates. After 24 h, the control plate for each cell line was fixed with TCA to evaluate cell culture before treatment with tested compounds. […] Cell cultures were then fixed by adding 50% TCA at 4 °C for 1 h. After removing the supernatant, the plates were washed with water and dried. […] Growth inhibition was calculated following the NCI guidelines and expressed as the GI50 ratio, i.e., the concentration of the compound in which the amount of protein was reduced by half compared with the control.
# CCRF/CEM cells [2] = assay: Rate of apoptosis (annexin V/PI, Tali Apoptosis Kit); format: cell-based, human; details: 24 h incubation, tested 0.2, 0.5 and 1 μM
# Description: Apoptosis is a process of programmed cell death. After exposure to tested compounds, the apoptosis rate was measured using Tali Apoptosis Kit (Invitrogen, Thermo Fisher Scientific, Waltham, MA, USA). In the process of apoptosis, phosphatidylserine (PS) is transferred to the outer side of the cell membrane. The assay uses the ability of fluorophore-labeled annexin V to identify apoptotic cells by binding to exposed PS. The CCRF/CEM cells were incubated in RPMI-1640 medium in 24-well plates for 24 h (37 °C, 5% CO2). Then, tested compounds were added at three different concentrations (0.2, 0.5, and 1 μM) and incubated for 24 h. Negative control was the culture of cells not exposed to apoptosis-inducing factors. After incubation with tested compounds, the cells were harvested, centrifuged, and the supernatant removed. Cells were suspended in annexin V binding buffer (ABB), and Alexa Fluor 488 annexin V conjugate was added to each sample. The cells were then incubated for 20 min in the dark at RT, centrifuged, and resuspended in ABB with propidium iodide (PI). After 5 min incubation, the stained samples were transferred to Tali Cellular Analysis Slides and analyzed using an image-based cytometer Arthur (NanoEnTek Inc., Seoul, Korea).
# LoVo/DX cells = assay: SRB assay (total protein content), LoVo/DX; format: cell-based; details: Homo sapiens, LoVo/DX cells (doxorubicin-resistant), 48 h incubation
# Description: as §1
# T24 cell = test system: T24 cell; parameters: method as in PMID 28138703; details: T24 cell study; cited from earlier work
# A549 cells = assay: MTT assay (mitochondrial activity), A549; format: cell-based; details: Homo sapiens
# Description: The anticancer activity of tested compounds was assessed on five human cell lines selected from the panel of tumor cell lines recommended by the National Cancer Institute: A495 (lung carcinoma), CCRF/CEM (acute lymphoblastic leukemia), LoVo and LoVo/DX (two types of colorectal: non-resistant and resistant to doxorubicin), and MCF-7 (breast adenocarcinoma). In addition, the NHDF cell line (normal human dermal fibroblasts) was used to estimate cytotoxicity to noncancer cells. The A549, CCRF/CEM, LoVo, LoVo/DX, and MCF-7 cells were obtained from ECACC, and NHDF cells from LONZA, Belgium. The A549 and MCF-7 cells were grown in EMEM medium, CCRF/CEM cells in RPMI-1640, LoVo and LoVo/DX cells in DMEM/F-12, and NHDF cells in DMEM without phenol red. The cells were seeded in […] in the biological assay, as recommended by the National Cancer Institute. All culture media were supplemented with L-glutamine, penicillin, streptomycin, and 10% fetal bovine serum (FBS). Cells were incubated at 37 °C and 5% CO2. An assessment of the mitochondrial cell activity after applying tested compounds was carried out using the test MTT assay, recommended in the ISO 10993-5:2009 standard. As in the SRB assay, the cells were exposed to tested compounds after 24 h of initial incubation in 96-well plates. The MTT solution (1 mg/mL) was added to each well, and cells were incubated for 2 h. Finally, the supernatant was removed, and the formazan crystals were dissolved in isopropanol. After 30 min, absorbance at 570 nm in Victor2 microplate reader (PerkinElmer). Cell viability was determined as the IC50 ratio, i.e., the concentration of the compound in which the viability was reduced by half compared with the control.
# CCRF/CEM cells [3] = test system: CCRF/CEM cells; parameters: method as in PMID 11755121; details: 48 h exposure; cited from earlier work
# NHDF cells = assay: Cell morphology, microscopic observation, NHDF; format: cell-based, human; details: NHDF normal cells, 24 h incubation
# Description: Olivacine, similar to ellipticine, is a compound with fluorescent properties. Therefore, by analyzing the intensity of fluorescence over time, it is possible to assess the cellular pharmacokinetics of the compounds. At the same time, cell morphology was also assessed. The cells were seeded into a 96-well plate and cultured for 24 h (37 °C, 5% CO2) for cell adhesion to the surface and regeneration. […] The culture plate was placed under a Juli microscope, and the device with the plate inside was put in the CO2 incubator. Pictures were taken every 15 min for 24 h. We have prepared software that allowed us to measure the fluorescence intensity of the indicated cells. Fluorescence analysis was performed for all images (every 15 min) during a period of rapid change in fluorescence intensity and less often at a later period when it stabilized. Three independent experiments were carried out, always analyzing 50 selected cells.
cell morphology (NHDF cells; 5 μM),SMILES,cell cycle effect (CCRF/CEM cells [1]),GI50 (MCF-7 cells) [µM],concentration at which apoptosis was induced (CCRF/CEM cells [2]) [µM],GI50 (LoVo/DX cells) [µM],cell cycle effect (T24 cell),IC50 (A549 cells) [µM],IC50 (CCRF/CEM cells [3]) [µM],cell morphology (NHDF cells; 2 μM),cell morphology (NHDF cells; 20 μM)
–,Cc1c2ccncc2c(C)c2c1[nH]c1ccccc12 [Ellipticine],stop the cell cycle in the G0/G1 phase,1.25 ± 0.77,1,0.75 ± 0.22,stops the cell cycle in the G2/M phase,12.9 ± 2.36,4.7 ± 0.48,–,–
normal,"Cc1nccc2c(C)c3[nH]c4ccccc4c3cc12 [Olivacine, 1,5-dimethyl-6H-pyrido[4,3-b]carbazole]",–,0.75 ± 0.07,1,0.82 ± 0.08,–,17.8 ± 7.82,–,did not negatively affect cell morphology,only a few fibroblast cells have been disintegrated
